Measurements from US9133204B2, “5-membered heterocyclic amides and related compounds” (H. Lundbeck A/S, priority 2007, dated 2015).
pIC50: −log10 of the molar value.

Target: T1, P2X7 receptor (Homo sapiens, UniProt Q99572)
T1 construct: host or cells: SH-SY5Y
T1 sequence (Q99572 1-595): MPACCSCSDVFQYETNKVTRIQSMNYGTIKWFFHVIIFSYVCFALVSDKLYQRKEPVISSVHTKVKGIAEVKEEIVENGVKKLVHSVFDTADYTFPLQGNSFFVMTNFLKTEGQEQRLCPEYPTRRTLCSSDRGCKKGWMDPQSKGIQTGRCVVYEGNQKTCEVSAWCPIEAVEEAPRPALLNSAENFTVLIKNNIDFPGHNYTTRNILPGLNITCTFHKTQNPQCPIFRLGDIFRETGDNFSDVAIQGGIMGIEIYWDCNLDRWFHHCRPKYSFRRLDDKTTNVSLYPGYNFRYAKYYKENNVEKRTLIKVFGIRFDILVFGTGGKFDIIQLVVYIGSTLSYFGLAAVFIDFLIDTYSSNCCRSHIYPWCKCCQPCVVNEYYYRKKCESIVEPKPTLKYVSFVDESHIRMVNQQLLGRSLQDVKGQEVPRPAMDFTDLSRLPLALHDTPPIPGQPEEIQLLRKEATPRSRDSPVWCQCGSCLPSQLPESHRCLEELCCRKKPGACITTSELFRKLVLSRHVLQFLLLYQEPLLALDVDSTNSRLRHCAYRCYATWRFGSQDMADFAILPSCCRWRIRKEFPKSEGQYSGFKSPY
Assay: High throughput P2X7 calcium mobilization assay (Example 4A)
Assay type: cell-based
Conditions: SH-SY5Y cells, 50% decrease in fluorescence response of cells exposed to 80 μM BzATP
Protocol: A. High Throughput Assay of P2X7 Receptors
SH-SY5Y cells, ATCC Number CRL-2266, (American Type Culture Collection, Manassas, Va.) are cultured under DMEM/High medium supplemented with 10% FBS, and 10 mM HEPES (Invitrogen Corp., Carlsbad, Calif.) in 5% CO2 and at 37° C. One day prior to the experiment, cells are plated at a density of 100,000 cells/well in a 96 well black/clear TC plate (Corning® Costar®, Sigma-Aldrich Co., St. Louis, Mo.). At the beginning of the experiment, the culture medium is removed and cells are incubated with 50 μL of 2.3 μM Fluo-4 AM dye (Invitrogen Corp.) in the assay solution (5 mM KCl, 9.6 mM NaH2PO4.H2O, 25 mM HEPES, 280 mM sucrose, 5 mM glucose, and 0.5 mM CaCl2; pH is adjusted to 7.4 with NaOH) for an hour at 37° C. After one hour dye incubation, wells are rinsed once with 50 μL assay solution, and are then incubated for an hour at room temperature with 100 μL assay solution containing the test compound. The final concentration of test compound generally ranges from 1 to 2500 nM; for positive control cells, no test compound is added. After the one hour incubation, plates are transferred to a FLIPR^TETRA instrument (Molecular Devices, Sunnyvale, Calif.) for calcium mobilization analysis.
For determination of antagonist activity, 50 μL, of P2X7 agonist (2′(3)-O-(4-benzoyl-benzoyl)adenosine 5′-triphosephate (BzATP; Sigma-Aldrich) in the assay solution is transferred using the FLIPR into the plate, such that the final agonist concentration is 80 μM (about EC50). In negative control cells, 50 μL of assay solution without agonist is added at this stage. The peak fluorescence signal over a 2 minute period is then measured.
First, the average maximum relative fluorescent unit (RFU) response from the negative control wells (no agonist) is subtracted from the maximum response detected for each of the other experimental wells. Second, average maximum RFU response is calculated for the positive control wells (agonist wells).

[1] = flag after the MS data in Examples 1-2

pIC50 (Table I)	pIC50 [1]	SMILES
≥ 5.70	–	CN1CCN(C2(CNC(=O)c3sc(-c4ncccn4)nc3C(F)(F)F)CCCCC2)CC1 [Compound 312, N-{[1-(4-methylpiperazin-1-yl)cyclohexyl]methyl}-2-pyrimidin-2-yl-4-(trifluoromethyl)-1,3-thiazole-5-carboxamide]
≥ 5.70	–	O=C(NCC(CC1CCCCC1)c1ccccc1)c1cn(-c2ncccn2)nc1C(F)(F)F (stereo not shown) [Compound 213, N-(3-cyclohexyl-2-phenypropyl)-1-pyrimidin-2-yl-3-(trifluoromethyl)-1H-pyrazole-4-carboxamide]
≥ 5.70	–	CC(C)CC(CNC(=O)c1cn(-c2ncccn2)nc1C(F)(F)F)c1ccc(C(F)(F)F)cc1 (stereo not shown) [Compound 200, N-{4-methyl-2-[4-(trifluoromethyl)phenyl]pentyl}-1-pyrimidin-2-yl-3-(trifluoromethyl)-1H-pyrazole-4-carboxamide]
≥ 5.70	–	CC1CC(NC(=O)c2cn(-c3ncccn3)nc2C(F)(F)F)CC(C)(C)C1 (stereo not shown) [Compound 216, 1-pyrimidin-2-yl-3-(trifluoromethyl)-N-(3,3,5-trimethylcyclohexyl)-1H-pyrazole-4-carboxamide]
≥ 5.70	–	O=C(NCC(c1ccccc1)C1CCCCC1)c1cn(-c2ncccn2)nc1C(F)(F)F (stereo not shown) [Compound 211, N-(2-cyclohexyl-2-phenylethyl)-1-pyrimidin-2-yl-3-(trifluoromethyl)-1H-pyrazole-4-carboxamide]
≥ 5.70	–	O=C(NCC1(c2cccnc2)CCCCC1)c1sc(-n2nccn2)nc1C(F)(F)F [Compound 309, N-[(1-pyridin-3-ylcyclohexyl)methyl]-2-(2H-1,2,3-triazol-2-yl)-4-(trifluoromethyl)-1,3-thiazole-5-carboxamide]
≥ 5.70	–	CC(CNC(=O)c1cn(-c2ncccn2)nc1C(F)(F)F)c1ccc(Cl)cc1 (stereo not shown) [Compound 202, N-[2-(4-chlorophenyl)propyl]-1-pyrimidin-2-yl-3-(trifluoromethyl)-1H-pyrazole-4-carboxamide]
≥ 5.70	–	CCCCCCCC(CNC(=O)c1cn(-c2ncccn2)nc1C(F)(F)F)c1ccccc1 (stereo not shown) [Compound 208, N-(2-phenylnonyl)-1-pyrimidin-2-yl-3-(trifluoromethyl)-1H-pyrazole-4-carboxamide]
≥ 5.70	–	CC(CCNC(=O)c1cn(-c2ncccn2)nc1C(F)(F)F)c1ccccc1 (stereo not shown) [Compound 215, N-(3-phenylbutyl)-1-pyrimidin-2-yl-3-(trifluoromethyl)-1H-pyrazole-4-carboxamide]
≥ 5.70	–	Cc1nc(-c2ncccn2)sc1C(=O)NCC(CC(C)C)c1ccc(C(F)(F)F)nc1 (stereo not shown) [Compound 306, 4-methyl-N-{4-methyl-2-[6-(trifluoromethyl)pyridin-3-yl]pentyl}-2-pyrimidin-2-yl-1,3-thiazole-5-carboxamide]
≥ 5.70	–	O=C(NCC1(c2cccnc2)CCCCC1)c1sc(-n2cncn2)nc1C(F)(F)F [Compound 310, N-[(1-pyridin-3-ylcyclohexyl)methyl]-2-(1H-1,2,4-triazol-1-yl)-4-(trifluoromethyl)-1,3-thiazole-5-carboxamide]
≥ 5.70	–	CCc1nc(-c2ncccn2)sc1C(=O)NC1CC(C)CC(C)(C)C1 (stereo not shown) [Compound 236, 4-ethyl-2-pyrimidin-2-yl-N-(3,3,5-trimethylcyclohexyl)-1,3-thiazole-5-carboxamide]
≥ 5.70	–	CCc1nc(-c2ncccn2)sc1C(=O)NCC1(c2ccc(Cl)nc2)CCCCC1 [Compound 298, N-{[1-(6-chloropyridin-3-yl)cyclohexyl]methyl}-4-ethyl-2-pyrimidin-2-yl-1,3-thiazole-5-carboxamide]
≥ 5.70	–	O=C(NCC1(c2cccnc2)CCCCC1)c1sc(-c2ccc3[nH]ccc3c2)nc1C(F)(F)F [Compound 318, 2-(1H-indol-5-yl)-N-[(1-pyridin-3-ylcyclohexyl)methyl]-4-(trifluoromethyl)-1,3-thiazole-5-carboxamide]

The remaining lines, values behind:

SMILES	pIC50 (Table I)	pIC50 [1]
Cc1nn(C)c(Cc2ccccc2)c1C(=O)NCC12CC3CC(CC(C3)C1)C2 [Compound 16, 5-Benzyl-1,3-dimethyl-1H-pyrazole-4-carboxylic acid (adamantan-1-ylmethyl)-amide]	–	≥ 5.70
Cc1ccc(C2(CNC(=O)c3cn(-c4ncccn4)nc3Cl)CCCCC2)cn1 [Compound 12, 3-Chloro-N-{[1-(6-methylpyridin-3-yl)cyclohexyl]methyl}-1-pyrimidin-2-yl-1H-pyrazole-4-carboxamide]	–	≥ 5.70
Cc1cnc(-n2cc(C(=O)NCC34CC5CC(CC(C5)C3)C4)c(C)n2)nc1C(=O)N1CCC[C@@H](N)C1 [Compound 105, N-(adamantan-1-ylmethyl)-1-(4-{[(3R)-3-aminopiperidin-1-yl]carbonyl}-5-methylpyrimidin-2-yl)-3-methyl-1H-pyrazole-4-carboxamide]	≥ 5.70	–
Cc1ccc(C2(CNC(=O)c3sc(-c4ncccn4)nc3C(F)(F)F)CCCCC2)cn1 [Compound 158, N-{[1-(6-methylpyridin-3-yl)cyclohexyl]methyl}-2-pyrimidin-2-yl-4-(trifluoromethyl)-1,3-thiazole-5-carboxamide]	≥ 5.70	–
O=C(NCC1(c2cccnc2)CCCCC1)c1sc(N2CCCCS2(=O)=O)nc1C(F)(F)F [Compound 26, 2-(1,1-Dioxido-1,2-thiazinan-2-yl)-N-[(1-pyridin-3-ylcyclohexyl)methyl]-4-(trifluoromethyl)-1,3-thiazole-5-carboxamide]	–	≥ 5.70
CCc1nc(-c2cccnc2)sc1C(=O)NCC1(c2cccnc2)CCCCC1 [Compound 166, 4-ethyl-2-pyridin-3-yl-N-[(1-pyridin-3-ylcyclohexyl)methyl]-1,3-thiazole-5-carboxamide]	≥ 5.70	–
CSc1ccc(C(=O)NCC23CC4CC(CC(C4)C2)C3)s1 [Compound 75, N-(1-adamantylmethyl)-5-(methylthio)thiophene-2-carboxamide]	≥ 5.70	–
Nc1nccnc1-n1cc(C(=O)NCC23CC4CC(CC(C4)C2)C3)c(C(F)(F)F)n1 [Compound 147, N-(adamantan-1-ylmethyl)-1-(3-aminopyrazin-2-yl)-3-(trifluoromethyl)-1H-pyrazole-4-carboxamide]	≥ 5.70	–
CC(C)CC(CNC(=O)c1sc(-c2ncccn2)nc1C(F)(F)F)c1ccc(Cl)cc1 (stereo not shown) [Compound 22, 4-trifluoromethyl-2-pyrimidin-2-yl-thiazole-5-carboxylic acid[2-(4-chloro-phenyl)-4-methyl-pentyl]-amide]	–	≥ 5.70
N[C@@H]1CCN(C2(CNC(=O)c3sc(-c4ncccn4)nc3C(F)(F)F)CCCCC2)C1 [Compound 162, N-({1-[(3R)-3-aminopyrrolidin-1-yl]cyclohexyl}methyl)-2-pyrimidin-2-yl-4-(trifluoromethyl)-1,3-thiazole-5-carboxamide]	≥ 5.70	–
Nc1nc(-n2cc(C(=O)NCC3(O)CCCCCC3)c(C(F)(F)F)n2)ncc1F [Compound 154, 1-(4-amino-5-fluoropyrimidin-2-yl)-N-[(1-hydroxycycloheptyl)methyl]-3-(trifluoromethyl)-1H-pyrazole-4-carboxamide]	≥ 5.70	–
Cc1cnc(-n2cc(C(=O)NCC34CC5CC(CC(C5)C3)C4)c(C)n2)nc1-c1ccncc1 [Compound 119, N-(adamantan-1-ylmethyl)-3-methyl-1-(5-methyl-4-pyridin-4-ylpyrimidin-2-yl)-1H-pyrazole-4-carboxamide]	≥ 5.70	–
Cc1cnc(-n2cc(C(=O)NCC3(c4ccc(C(F)(F)F)cc4)CCCCC3)c(C)n2)nc1N [Compound 170, 1-(4-amino-5-methylpyrimidin-2-yl)-3-methyl-N-({1-[4-(trifluoromethyl)phenyl]cyclohexyl}methyl)-1H-pyrazole-4-carboxamide]	≥ 5.70	–
O=C(NCC1(N2CCOCC2)CCCCC1)c1sc(-c2ncccn2)nc1C(F)(F)F [Compound 159, N-[(1-morpholin-4-ylcyclohexyl)methyl]-2-pyrimidin-2-yl-4-(trifluoromethyl)-1,3-thiazole-5-carboxamide]	≥ 5.70	–
